# According to US20210177892A1, “PREVENTION AND TREATMENT OF INFECTIOUS DISEASE USING LOW CONCENTRATION HYPOCHLOROUS ACID SOLUTIONS” (Wonder Spray, LLC, priority 2019, published 2021):
# Legend:
# [1] = test system: Streptococcus pneumoniae ATCC 49619; assay: Kill Time Study, Streptococcus pneumoniae; type: cell-based; details: FIG. 3
# Description: (§1) For example, FIG. 3 and FIG. 4 illustrate tables of the effect of a solution of HOCl on Streptococcus pneumoniae and Streptococcus pyogenes, respectively. The organisms in this test were prepared by inoculating the surface of about 5% Sheep blood agar plates, incubated at about 30 to 35° C. for 18 to 24 hours. Following the incubation period, the plates were washed with sterile Serological Saline Solution to harvest the microorganisms used and dilutions with Saline were made, plated on blood agar and incubated at 30 to 35° C. for 24-48 hours to determine the concentration. The inoculum level was then adjusted to […] for use as a stock suspension. Stock suspensions were well mixed and homogenized at each inoculation interval.
# (§2) Positive controls were performed at initiation and completion by spread plating to enumerate inoculum levels and verify culture purity during testing and Negative controls were performed to establish sterility of media, reagents, and materials used at initiation. Neutralizer Suitability using Modified Letheen Broth (MLB) was performed concurrently with Kill Time testing to confirm the recovery of <100 CFU of the test organism in the subculture media in the presence of product. Duplicate 10 ml containers for each treated specimen or material concentration was prepared, equilibrated to 25±2° C., and 0.1 ml of inoculum is added to each container to achieve a final concentration of 10^6 cfu/ml.
# (§3) Serial dilutions from each replicate were made at intervals of 15 second, 30 second, 1 minute and 5 minutes using 1 ml of the inoculated test product into 9 ml MLB from 1:10 to 1:1000000. Subsequently, 1 ml from each dilution was spread plated on 5% Sheep Blood agar plate in duplicate, incubated at 30 to 35° C. for 48 hours. After the incubation period, all plates were counted to determine the number of microorganisms, results are averaged and reported as log 10 reductions.
# [2] = inhalation; cited from earlier work
# f2 RNA = details: cited from earlier work
# [3] = test system: Streptococcus pyogenes ATCC 49399; assay: Kill Time Study, Streptococcus pyogenes; type: cell-based; details: FIG. 4
# Description: as §1, §2, §3
# E. coli = details: 50 mM (2.6 ppm), within 5 minutes; cited from earlier work
smiles,measurement,setting,value
"OCl [HOCl, Hypochlorous acid]",time in which bacteria that cause pneumonia are effectively killed,[1],less than 15 seconds
same,cfu/ml of Streptococcus pneumoniae after the HOCl solution was applied,[1]; after fifteen seconds,less than 10 cfu/ml
same,log 10 reduction for Streptococcus pneumoniae,[1]; after fifteen seconds,6.057 log 10
same,percent reduction for Streptococcus pneumoniae,[1]; after fifteen seconds,99.99%
same,adverse effects of inhaling the aerosolized form,[2],no adverse effects
same,inactivation of naked f2 RNA compared with RNA in intact phage,f2 RNA,inactivated naked f2 RNA at the same rate as RNA in intact phage
same,time in which bacteria that cause strep throat are effectively killed,[3],less than 15 seconds
same,cfu/ml of Streptococcus pyogenes after the HOCl solution was applied,[3]; after fifteen seconds,less than 10 cfu/ml
same,log 10 reduction for Streptococcus pyogenes,[3]; after fifteen seconds,6.086 log 10
same,percent reduction for Streptococcus pyogenes,[3]; after fifteen seconds,99.99%
same,inhibition of DNA synthesis in E. coli,E. coli,ninety-six
same,inhibition of the growth of E. coli,E. coli,completely inhibited the growth
